Data: US4412996A, “Pyridoxine derivatives and related pharmaceutical compositions” (Crinos Farmacologica Spa, priority 1980, dated 1983)
Where a name gives a salt, the structure may show the parent alone. Read-outs that look alike come from different tables or passages of the source.

How the values were obtained:
rat [1] = test: Anti-inflammatory activity, carrageenin induced oedema (Winter et al.); assay type: in vivo; conditions: 3 h; for Carrageenin induced oedema (3 h) ED50: 180 min; for ED50: Rattus norvegicus, po, read-out: Carrageenin induced oedema (3 h) ED50
Source text: (§1) As regards the anti-inflammatory activity, the ED50 in the normal rat has been evaluated according to Winter et al. (Proc. Soc. Exp. Biol. Med., 111, 544, 1962).

rat [2] = test: Ulcerogenic activity / gastric tolerability, UD50 in fasted rats; assay type: in vivo; conditions: for Gastric tolerability UD50 fasted 18 h / Gastric tolerability UD50 fasted 48 h: rat, in vivo, po
Source text: (§2) The UD50 has been also calculated according to the aforesaid method of Litchfield and Wilcoxon.

[3] = as above; assay type: in vivo, rat; conditions: rat, in vivo, po
Source text: as §2

rat [4] = test: Acute toxicity in the rat (method of Litchfield and Wilcoxon); conditions: in vivo, po
Source text: (§3) In the following resuming table the results obtained for the esters of the Indomethacin are reported. In the determination of the acute toxicity, carried out in the rat, the method of Litchfield and Wilcoxon (J. Pharmacol. Exp. Therm., 96, 99, 1949) has been adopted.

[5] = Analgesic activity (method of Randall and Selitto); assay type: in vivo; conditions: for ED50: po, read-out: Randall-Selitto (3 h) ED50; for selectivity ratio: in vivo, Randall-Selitto 3 h, read-out: Therapeutical index LD50/ED50 (Randall-Selitto 3h)
Source text: As regards the analgesic activity, the evaluation has been carried out according to the method of Randall and Selitto (Arch. Ing. Pharmacodyn., 111, 409, […]).

[6] = Anti-inflammatory activity, carrageenin induced oedema (Winter et al.); assay type: in vivo, rat; conditions: rat, in vivo; carrageenin 3 h; read-out: Therapeutical index LD50/ED50 (carrageenin 3h)
Source text: as §1

[7] = Solubility of the product; assay type: physicochemical
[8] = Acute toxicity in the rat (method of Litchfield and Wilcoxon); conditions: in vivo, po
Source text: as §3

[9] = UD50 18 h, carrageenin 3 h, read-out: Tolerability index UD50 (18 h)/ED50 (carrageenin 3 h)
[10] = UD50 48 h, carrageenin 3 h, read-out: Tolerability index UD50 (48 h)/ED50 (carrageenin 3 h)
[11] = UD50 18 h, Randall-Selitto 3 h, read-out: Tolerability index UD50 (18h)/ED50 (Randall-Selitto 3 H)
[12] = UD50 48 h, Randall-Selitto 3 h, read-out: Tolerability index UD50 (48 h)/ED50 (Randall-Selitto 3 h)

Compound	Carrageenin induced oedema (3 h) ED50 (rat [1]; normal rat, per os) [mg/kg/os]	Tolerability index UD50 (18h)/ED50 (Randall-Selitto 3 H) (rat [2]; UD50 18 h)	Tolerability index UD50 (48 h)/ED50 (Randall-Selitto 3 h) (rat [2]; UD50 48 h)	Gastric tolerability UD50 fasted 18 h (rat [2])	Gastric tolerability UD50 fasted 48 h (rat [2])	selectivity ratio [3, 9]	selectivity ratio [3, 10]	LD50, rat (rat [4]) [mg/kg]	ED50 ([5]; 3 h, per os) [mg/kg]	selectivity ratio [6]	selectivity ratio [5]	selectivity ratio [3, 11]	selectivity ratio [3, 12]	further results
COc1ccc2c(c1)c(CC(=O)OCc1cnc(C)c3c1COC(C)(C)O3)c(C)n2C(=O)c1ccc(Cl)cc1 [compound ex. 1(c), (3,4-isopropylidene)-pyridoxine ester of 1-(p-chlorobenzoyl)-2-methyl-5-methoxy-indol-3-acetic acid]	36.83	78.51	51.85	212.00	140.00	5.75	3.8	> 200	2.7					
COc1ccc2c(c1)c(CC(=O)OCc1cnc(C)c3c1COC(C)(C)O3)c(C)n2C(=O)c1ccc(Cl)cc1 [compound ex. 1(b), Hydrochloride of the (3,4-isopropylidene)-pyridoxine ester of 1-(p-chlorobenzoyl)-2-methyl-5-methoxy-indol-3-acetic acid]	10.13	12.59	8.45	33.50	22.50			85		8.39	31.9			Tolerability index UD50 (18 h)/ED50 (carrageenin 3 h) (rat [2]; UD50 18 h, carrageenin 3 h): 3.30; Tolerability index UD50 (48 h)/ED50 (carrageenin 3 h) (rat [2]; UD50 48 h, carrageenin 3 h): 2.22; solubility in cold chloroform ([7]; cold chloroform): soluble; solubility in hot N,N'-dimethylformamide ([7]; hot N,N'-dimethylformamide): poorly soluble; solubility in hot ethanol ([7]; hot ethanol): soluble; solubility in water ([7]; water): insoluble; Randall-Selitto (3 h) ED50 ([5]; 3 h, per os, 180 min): 2.66 mg/kg/os
COc1ccc2c(c1)c(CC(=O)OCc1cnc(C)c(O)c1CO)c(C)n2C(=O)c1ccc(Cl)cc1 [compound ex. 2, Pyridoxine ester of 1-(p-chlorobenzoyl)-2-methyl-5-methoxy-indol-3-acetic acid]						6.97	3.75		3.37			157	84.6	ED50 (rat [1]; normal rat, per os): 76 mg/kg; TD50 at 18 h ([3]; Gastric tolerability UD50 fasted 18 h): 530 mg/kg; TD50 at 48 h ([3]; Gastric tolerability UD50 fasted 48 h): 285 mg/kg; mortality ([8]; 819 mg/kg, read-out: LD50, rat line: percent at 819 mg/kg): 62.5%
COc1ccc2c(c1)c(CC(=O)O)c(C)n2C(=O)c1ccc(Cl)cc1 [Indomethacin, 1-(p-chlorobenzoyl)-2-methyl-5-methoxy-indol-3-acetic acid, reference compound]						1.57	0.78			4.77	15.8	5.18	2.59	ED50 (rat [1]): 4.4 mg/kg; TD50 at 18 h ([3]; fasted rats, per os, 18 h, read-out: Gastric tolerability UD50 fasted 18 h): 6.9 mg/kg; TD50 at 48 h ([3]; fasted rats, per os, 48 h, read-out: Gastric tolerability UD50 fasted 48 h): 3.45 mg/kg; LD50 ([8]; per os (head: mg/kg/os), * = insufficient sample): 21 mg/kg; ED50 ([5]; 3 h): 1.33 mg/kg
